Reference: ChEMBL document CHEMBL5543162, “Discovery of a Novel Orally Bioavailable FLT3-PROTAC Degrader for Efficient Treatment of Acute Myeloid Leukemia and Overcoming Resistance of FLT3 Inhibitors” (J Med Chem, 2024)
pIC50: −log10 of the molar value. Calls of active or inactive are those of the source. The calls are words filed in the database; no cut-off is given here.

Experiments:
BaF3 = test: Antiproliferative activity against mouse Ba/F3 cells expressing FLT3-ITD F691L mutant incubated for 48 hrs by CCK8 assay; type: functional, cell-based; details: BaF3, 48 h
[1] = system: Protein cereblon/Receptor-type tyrosine-protein kinase FLT3 (Homo sapiens), P36888+Q96SW2 [UNDEFINED MUTATION]; test: PROTAC activity at CRBN/FLT3-ITD mutant in human MOLM-13 cells assessed as decrease in ERK level incubated for 12 hrs by Western blot analysis; type: cell-based; details: dose <= 20.0 nM
Protein cereblon/Receptor-type tyrosine-protein kinase FLT3 (Homo sapiens), P36888+Q96SW2 [UNDEFINED MUTATION], sequence (P36888 whole entry, looked up, stated change not applied): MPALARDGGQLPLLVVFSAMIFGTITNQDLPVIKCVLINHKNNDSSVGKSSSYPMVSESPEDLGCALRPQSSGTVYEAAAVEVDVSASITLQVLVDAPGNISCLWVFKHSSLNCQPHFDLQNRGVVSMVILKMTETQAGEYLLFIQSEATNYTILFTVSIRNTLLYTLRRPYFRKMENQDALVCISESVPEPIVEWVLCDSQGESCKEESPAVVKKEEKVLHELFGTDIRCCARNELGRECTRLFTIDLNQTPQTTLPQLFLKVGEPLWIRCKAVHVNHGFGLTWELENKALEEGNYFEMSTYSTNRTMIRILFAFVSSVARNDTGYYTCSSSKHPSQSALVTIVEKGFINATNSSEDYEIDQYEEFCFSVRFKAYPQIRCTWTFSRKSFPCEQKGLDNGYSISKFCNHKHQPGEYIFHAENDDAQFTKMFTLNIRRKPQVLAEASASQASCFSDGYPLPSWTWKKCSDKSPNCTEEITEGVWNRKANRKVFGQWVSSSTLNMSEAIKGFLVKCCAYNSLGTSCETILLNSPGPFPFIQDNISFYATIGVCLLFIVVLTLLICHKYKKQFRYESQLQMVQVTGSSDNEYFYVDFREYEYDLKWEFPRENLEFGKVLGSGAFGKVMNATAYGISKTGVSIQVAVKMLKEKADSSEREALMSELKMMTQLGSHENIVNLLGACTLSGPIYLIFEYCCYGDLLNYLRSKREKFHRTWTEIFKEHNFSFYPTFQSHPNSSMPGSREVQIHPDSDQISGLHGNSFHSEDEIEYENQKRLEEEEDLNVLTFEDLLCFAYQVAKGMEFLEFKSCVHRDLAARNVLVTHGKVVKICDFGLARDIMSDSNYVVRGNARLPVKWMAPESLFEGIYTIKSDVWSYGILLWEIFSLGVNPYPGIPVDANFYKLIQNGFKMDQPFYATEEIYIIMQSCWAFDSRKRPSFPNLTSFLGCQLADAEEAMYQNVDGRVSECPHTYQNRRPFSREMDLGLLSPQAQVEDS
Protein cereblon/Receptor-type tyrosine-protein kinase FLT3 (Homo sapiens), P36888+Q96SW2 [UNDEFINED MUTATION], sequence (Q96SW2 whole entry, looked up, stated change not applied): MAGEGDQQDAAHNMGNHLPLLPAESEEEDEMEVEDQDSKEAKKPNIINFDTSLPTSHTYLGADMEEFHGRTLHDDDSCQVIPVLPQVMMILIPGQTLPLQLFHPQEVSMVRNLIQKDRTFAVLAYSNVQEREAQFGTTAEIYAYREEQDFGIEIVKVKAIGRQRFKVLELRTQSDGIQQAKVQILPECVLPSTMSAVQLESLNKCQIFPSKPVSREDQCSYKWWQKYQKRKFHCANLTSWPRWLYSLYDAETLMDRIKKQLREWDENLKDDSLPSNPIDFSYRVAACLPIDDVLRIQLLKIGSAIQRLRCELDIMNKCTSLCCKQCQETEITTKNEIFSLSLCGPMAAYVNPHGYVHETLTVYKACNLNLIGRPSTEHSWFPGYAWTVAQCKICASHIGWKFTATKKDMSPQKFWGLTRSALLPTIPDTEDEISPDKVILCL

[2] = system: Protein cereblon/Receptor-type tyrosine-protein kinase FLT3 (Homo sapiens), P36888+Q96SW2 [UNDEFINED MUTATION]; test: PROTAC activity at CRBN/FLT3-ITD mutant in human MV4-11 cells assessed as decrease in STAT5 level incubated for 12 hrs by Western blot analysis; type: cell-based; details: dose <= 20.0 nM
[3] = Antiproliferative activity against human THP-1 cells expressing wild-type FLT3 incubated for 48 hrs by CCK8 assay; type: toxicity, cell-based
[4] = Stability in monkey liver microsomes assessed as hepatic clearance; type: ADME, Microsome; details: chlorocebus aethiops
MV4-11 [5] = test: Antitumor activity against human MV4-11 cells xenografted in nu/nu mouse at 10 mg/kg, po administered daily for 2 weeks relative to control; type: functional; details: MV4-11, 336 h, read-out: TGI
[6] = Oral bioavailability in Sprague-Dawley rat at 10 mg/kg measured for 24 hrs by LC-MS/MS analysis; type: ADME, organism-based; details: in vivo
[7] = system: Protein cereblon/Receptor-type tyrosine-protein kinase FLT3 (Homo sapiens), P36888+Q96SW2 [UNDEFINED MUTATION]; test: PROTAC activity at CRBN/FLT3-ITD mutant in human MV4-11 cells assessed as decrease in S6K level incubated for 12 hrs by Western blot analysis; type: cell-based; details: dose <= 20.0 nM
[8] = Stability in monkey liver microsomes assessed as intrinsic clearance; type: ADME, Microsome; details: chlorocebus aethiops, read-out: CLH
[9] = AUC (0 to t) in Sprague-Dawley rat at 1 mg/kg, iv measured for 24 hrs by LC-MS/MS analysis; type: ADME, organism-based; details: in vivo
MV4-11 [10] = test: Antitumor activity against human MV4-11 cells expressing luciferase xenografted in NSG mouse assessed as increase in animal survival at 10 mg/kg, po administered daily for 3 weeks and measured for 77 days; type: functional, organism-based; details: time 77.0 day
[11] = Volume of distribution at steady state in Sprague-Dawley rat at 10 mg/kg, po measured for 24 hrs by LC-MS/MS analysis; type: ADME, organism-based; details: in vivo
[12] = system: Protein cereblon/Receptor-type tyrosine-protein kinase FLT3 (Homo sapiens), P36888+Q96SW2 [UNDEFINED MUTATION]; test: PROTAC activity at CRBN/FLT3-ITD mutant in membrane of human MV4-11 cells assessed as protein degradation at 100 nM measured after 24 hrs by immunofluorescence analysis
[13] = Stability in rat liver microsomes assessed as hepatic clearance; type: ADME, Microsome
[14] = Clearance in Sprague-Dawley rat at 1 mg/kg, iv measured for 24 hrs by LC-MS/MS analysis; type: ADME, organism-based; details: in vivo
[15] = system: Protein cereblon/Receptor-type tyrosine-protein kinase FLT3 (Homo sapiens), P36888+Q96SW2 [UNDEFINED MUTATION]; test: PROTAC activity at CRBN/FLT3-ITD mutant in human MOLM-13 cells assessed as protein degradation incubated for 12 hrs by Western blot analysis; type: cell-based; details: dose <= 20.0 nM
MV4-11 [16] = test: Antitumor activity against human MV4-11 cells xenografted in nu/nu mouse at 1.25 mg/kg, po administered daily for 2 weeks relative to control; type: functional; details: MV4-11, 336 h, read-out: TGI
Cytochrome P450 2B6 = biological target: T1, Cytochrome P450 2B6 (Homo sapiens, UniProt P20813); test: Inhibition of CYP2B6 (unknown origin); type: ADME
T1 sequence (P20813 whole entry): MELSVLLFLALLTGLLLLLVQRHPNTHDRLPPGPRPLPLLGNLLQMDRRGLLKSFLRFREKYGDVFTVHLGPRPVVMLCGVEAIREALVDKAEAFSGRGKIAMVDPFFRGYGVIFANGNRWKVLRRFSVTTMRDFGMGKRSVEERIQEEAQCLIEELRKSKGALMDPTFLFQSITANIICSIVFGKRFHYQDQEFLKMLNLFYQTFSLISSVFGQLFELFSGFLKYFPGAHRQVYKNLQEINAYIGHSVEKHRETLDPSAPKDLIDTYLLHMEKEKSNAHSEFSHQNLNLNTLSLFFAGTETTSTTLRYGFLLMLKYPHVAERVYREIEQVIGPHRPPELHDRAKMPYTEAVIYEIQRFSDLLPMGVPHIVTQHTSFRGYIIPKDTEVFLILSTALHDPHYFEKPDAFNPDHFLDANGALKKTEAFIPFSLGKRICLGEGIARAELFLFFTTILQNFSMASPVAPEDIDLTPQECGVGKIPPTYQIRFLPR

[17] = Volume of distribution at steady state in Sprague-Dawley rat at 1 mg/kg, iv measured for 24 hrs by LC-MS/MS analysis; type: ADME, organism-based; details: in vivo, read-out: Vdss
Cytochrome P450 1A2 = biological target: T2, Cytochrome P450 1A2 (Homo sapiens, UniProt P05177); test: Inhibition of CYP1A2 (unknown origin); type: ADME
T2 sequence (P05177 whole entry): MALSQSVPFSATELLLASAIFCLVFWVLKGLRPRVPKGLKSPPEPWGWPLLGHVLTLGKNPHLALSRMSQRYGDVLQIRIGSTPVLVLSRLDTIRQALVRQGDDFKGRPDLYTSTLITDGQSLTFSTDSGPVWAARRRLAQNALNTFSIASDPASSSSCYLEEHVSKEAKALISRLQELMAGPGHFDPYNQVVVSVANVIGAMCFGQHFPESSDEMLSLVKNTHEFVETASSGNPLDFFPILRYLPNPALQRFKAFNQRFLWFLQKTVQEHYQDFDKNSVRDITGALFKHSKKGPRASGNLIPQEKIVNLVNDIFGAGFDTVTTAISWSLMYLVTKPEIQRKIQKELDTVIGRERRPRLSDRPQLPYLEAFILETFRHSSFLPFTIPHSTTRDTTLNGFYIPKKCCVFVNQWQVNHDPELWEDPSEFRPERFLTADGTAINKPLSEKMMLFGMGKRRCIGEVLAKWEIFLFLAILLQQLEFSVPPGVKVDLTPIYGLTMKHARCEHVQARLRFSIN

[18] = Toxicity in nude mouse xenografted with human MV4-11 cells assessed as change in body weight at 120 mg/kg, po administered daily for 15 days; type: organism-based; details: in vivo, 360 h, time 15 day
[19] = AUC (0 to t) in Sprague-Dawley rat at 10 mg/kg, po measured for 24 hrs by LC-MS/MS analysis; type: ADME, organism-based; details: in vivo
[20] = Toxicity in NSG mouse xenografted with human MV4-11 cells expressing luciferase assessed as physiological change at 10 mg/kg, po administered daily for 3 weeks; type: organism-based; details: in vivo, 504 h
[21] = system: Protein cereblon/Receptor-type tyrosine-protein kinase FLT3 (Homo sapiens), P36888+Q96SW2 [UNDEFINED MUTATION]; test: PROTAC activity at CRBN/FLT3-ITD mutant in human MOLM-13 cells assessed as decrease in ERK level at 20 nM by Western blot analysis; type: cell-based; details: time <= 12.0 hrs, TDE = time-dependent effect
MOLM-13 [22] = test: Induction of apoptosis in human MOLM-13 cells incubated for 24 hrs by Annexin V-FITC/PI staining based flow cytometry; type: functional, cell-based; details: dose 25-100 nM
MOLM-13 [23] = test: Antiproliferative activity against human MOLM-13 cells incubated for 48 hrs by CCK8 assay; type: functional, cell-based; details: MOLM-13, 48 h
MV4-11 [24] = test: Induction of cell cycle arrest at G1 phase in human MV4-11 cells at 1 nM incubated for 24 hrs by PI/RNase staining based flow cytometry relative to control; type: functional
MV4-11 [25] = test: Antiproliferative activity against human MV4-11 cells expressing FLT3-ITD mutant incubated for 48 hrs by CCK8 assay; type: functional, cell-based; details: MV4-11, 48 h

SMILES: Cc1c(NC(=O)CN2CCN(CC3CCN(c4ccc5c(c4)C(=O)N(C4CCC(=O)NC4=O)C5=O)CC3)CC2)c[nH]c1/C=C1\C(=O)Nc2ccc(F)cc21 (stereo not drawn)
- pIC50 (BaF3): 7.18
- Activity [1]: Dose-Dependent Effect
- Activity [2]: Dose-Dependent Effect
- IC50 at 48 h [3]: 15100 nM
- CLhep predicted [4]: 23.4 mL/min/kg
- inhibition in vivo at 10 mg/kg (MV4-11 [5]): 100%
- bioavailability [6]: 53%
- Activity [7]: Dose-Dependent Effect
- CLint scaled [8]: 50.7 mL/min/kg
- AUC(0-t) at 24 h [9]: 2770 ng·h/mL
- Activity (MV4-11 [10]): Active
- Vdss [11]: 5.7 L/kg
- Activity [12]: Active
- CLhep predicted [13]: 20.5 mL/min/kg
- clearance [14]: 3.5 mL/min/kg
- Activity [15]: Dose-Dependent Effect
- inhibition in vivo at 1.25 mg/kg (MV4-11 [16]): 51.4%
- pIC50 (Cytochrome P450 2B6): < 4.30
- Vd [17]: 3.5 L/kg
- pIC50 (Cytochrome P450 1A2): < 4.30
- Activity [18]: Non-Toxic
- AUC(0-t) at 24 h [19]: 14700 ng·h/mL
- Activity [20]: Non-Toxic
- Activity [21]: Tde
- Activity (MOLM-13 [22]): Dose-Dependent Effect
- pIC50 (MOLM-13 [23]): 6.77
- Activity (MV4-11 [24]): 82%
- pIC50 (MV4-11 [25]): 7.40
